In US10238658B2, “1-pyrazolyl-3-(4-((2-anilinopyrimidin-4-yl) oxy) napththalen-1-yl) ureas as p38 MAP kinase inhibitors” (Respivert Limited, priority 2011, dated 2019):

Columns and labels:
[1] = tested on: HRV16; assay: HRV16 induced CPE in MRC5 cells; assay type: cell-based; conditions: Human rhinovirus sp., HRV16, MRC5, at 0.04 μg/mL; read-out: HRV CPE (MRC5) % inhibition
Description: The supernatants were aspirated, and then fresh media added followed by incubation for 4 days. Where appropriate, cells were pre-incubated with compound or DMSO for 2 hr, and the compounds and DMSO added again after washout of the virus.
The percentage inhibition for each well was calculated. The IC50 value was calculated from the concentration-response curve generated by the serial dilutions of the test compounds.

[2] = tested on: RSV A2; assay: In vitro RSV virus load (F-protein ELISA) in primary bronchial epithelial cells; assay type: cell-based, respiratory syncytical virus; conditions: human respiratory syncytial virus, Primary bronchial epithelial cell; at 0.04 μg/mL; read-out: RSV (F-Elisa) (HBEC) % inhibition
Description: Normal human bronchial epithelial cells (NHBEC) grown in 96 well plates were infected with RSV A2 (Strain A2, HFA, Salisbury, UK) at an MOI of 0.001 in the LHC8 Media:RPMI-1640 (50:50) containing 15 mM magnesium chloride and incubated for 1 hr at 37° C. for adsorption. The cells were then washed with PBS (3×200 μL), fresh media (200 μL) was added and incubation continued for 4 days. Where appropriate, cells were pre-incubated with the compound or DMSO for 2 hr, and then added again after washout of the virus.
The cells were fixed with 4% formaldehyde in PBS solution (50 μL) for 20 min, washed with washing buffer (3×200 μL; PBS including 0.5% BSA and 0.05% Tween-20) and incubated with blocking solution (5% condensed milk in PBS) for 1 hr. Cells were then washed with washing buffer (3×200 μL) and incubated for 1 hr at RT with anti-RSV (2F7) F-fusion protein antibody (40 μL; mouse monoclonal, lot 798760, Cat. No. ab43812, Abcam) in 5% BSA in PBS-tween). After washing, cells were incubated with an HRP-conjugated secondary antibody solution (50 μL) in 5% BSA in PBS-Tween (lot 00053170, Cat.No. P0447, Dako) and then TMB substrate (50 μL; substrate reagent pack, lot 269472, Cat. No. DY999, R&D Systems, Inc.) was added. This reaction was stopped by the addition of 2N H2SO4 (50 μL) and the resultant signal was determined colorimetrically (OD: 450 nm with a reference wavelength of 655 nm) in a microplate reader (Varioskan® Flash, ThermoFisher Scientific).
After washing with washing buffer, 1% SDS in distilled water (100 μL) was added to each well, and plates were shaken lightly on the shaker for 1 hr prior to reading the absorbance at 595 nm. The measured OD450-655 readings were corrected to the cell number by dividing the OD450-655 by the OD595 readings. The percentage inhibition for each well was calculated and the IC50 value was calculated from the concentration-response curve generated from the serial dilutions of compound.

[3] = tested on: TNFα; assay: LPS-induced TNFα release in THP-1 cells; assay type: cell-based; conditions: Homo sapiens, THP-1, THP1 cells
Description: THP-1 cells, a human monocytic cell line, were stimulated with 3 μg/mL of LPS (from E. Coli; 0111:B4, Sigma) for 4 hr and the supernatant collected for determination of the TNFα concentration by sandwich ELISA (Duo-set, R&D systems). The inhibition of TNFα production was calculated at each concentration by comparison with vehicle control.

[4] = tested on: IL-8; assay: LPS-induced IL-8 release in d-U937 cells; assay type: cell-based; conditions: Homo sapiens, dU937, dU937 cells
Description: (§1) U937 cells, a human monocytic cell line, were differentiated into macrophage-type cells by incubation with PMA (100 ng/mL) for 48 to 72 hr. Cells were pre-incubated with final concentrations of test compound for 2 hr and were then stimulated with LPS (0.1 μg/mL; from E. Coli: O111:B4, Sigma) for 4 hr. The supernatant was collected for determination of TNFα and IL-8 concentrations by sandwich ELISA (Duo-set, R&D systems). […] The relative 50% effective concentration (REC50) was determined from the resultant concentration-response curve. The inhibition of IL-8 production was calculated at each concentration of test compound by comparison with vehicle control.

[5] = tested on: IL-8; assay: Rhinovirus-induced IL-8 release in BEAS2B cells; assay type: cell-based; conditions: Homo sapiens, BEAS-2B, at 0.04 μg/mL; read-out: HRV IL-8 (BEAS2B) % inhibition
Description: Human rhinovirus RV16 was obtained from the American Type Culture Collection (Manassas, Va.). Viral stocks were generated by infecting Hela cells with HRV until 80% of the cells were cytopathic.
BEAS2B cells were infected with HRV at an MOI of 5 and incubated for 2 hr at 33° C. with gentle shaking for to promote absorption. The cells were then washed with PBS, fresh media added and the cells were incubated for a further 72 hr. The supernatant was collected for assay of IL-8 concentrations using a Duoset ELISA development kit (R&D systems, Minneapolis, Minn.). […]

[6] = tested on: TNFα; assay: LPS-induced TNFα release in d-U937 cells; assay type: cell-based; conditions: Homo sapiens, dU937, dU937 cells; relative to 10 μg/mL BIRB796; read-out: LPS Induced Release TNFα REC50 (dU937)
Description: as §1

[7] = tested on: PBMC; assay: Cell mitosis assay; assay type: cell-based; conditions: Homo sapiens, read-out: Mitosis Assay % inhibition in PBMC Cells at concn 5 μg/mL
Description: Peripheral blood mononucleocytes (PBMCs) from healthy subjects were separated from whole blood (Quintiles, London, UK) using a density gradient (Histopaque®-1077, Sigma-Aldrich, Poole, UK). The PBMCs (3 million cells per sample) were subsequently treated with 2% PHA (Sigma-Aldrich, Poole, UK) for 48 hr, followed by a 20 hr exposure to varying concentrations of test compounds. At 2 hr before collection, PBMCs were treated with demecolcine (0.1 μg/mL; Invitrogen, Paisley, UK,) to arrest cells in metaphase. To observe mitotic cells, PBMCs were permeabilised and fixed by adding Intraprep (50 μL; Beckman Coulter, France), and stained with anti-phospho-histone 3 ([…]; #9701; Cell Signalling, Danvers, Mass.) and propidium iodide (1 mg/mL; Sigma-Aldrich, Poole, UK,) as previously described (Muehlbauer P. A. and Schuler M. J., Mutation Research, 2003, 537:117-130). Fluorescence was observed using an ATTUNE flow cytometer (Invitrogen, Paisley, UK), gating for lymphocytes.

[8] = tested on: A/J mice; assay: Cigarette smoke model: macrophage and neutrophil accumulation in BALF; assay type: in vivo, mouse; conditions: 1.75 μg/mouse (35 μL, bid, i.n.)
Description: A/J mice (males, 5 weeks old) were exposed to cigarette smoke (4% cigarette smoke, diluted with air) for 30 min/day for 11 days using a Tobacco Smoke Inhalation Experiment System for small animals (Model SIS-CS; Sibata Scientific Technology, Tokyo, Japan). […] At 12 hr after the last dosing, each of the animals was anesthetized, the trachea cannulated and bronchoalveolar lavage fluid (BALF) was collected. The numbers of alveolar macrophages and neutrophils were determined by FACS analysis (EPICS® ALTRA II, Beckman Coulter, Inc., Fullerton, Calif., USA) using anti-mouse MOMA2 antibody (macrophage) or anti-mouse 7/4 antibody (neutrophil). BALF was centrifuged and the supernatant was collected. The level of keratinocyte chemoattractant (KC; CXCL1) in BALF was quantitated using a Quentikine® mouse KC ELISA kit (R&D systems, Inc., Minneapolis, Minn., USA).

[9] = tested on: IL-6; assay: LPS-stimulated IL-6 production in sputum macrophages from COPD; assay type: cell-based; conditions: Homo sapiens, Macrophage; read-out: IL-6 E max, sputum macrophage
Description: Patients with COPD were inhaled with a nebulised solution of 3% (w/v) hypertonic saline using an ultrasonic nebuliser (Devilbiss, Carthage, Mo.) with tidal breathing for 5 min. This procedure was repeated a maximum of three times until enough sputum was obtained. The sputum samples were homogenized and mixed vigorously using a vortex mixer in 0.02% v/v dithiothreitol (DTT) solution. The samples were re-suspended in PBS (40 mL) followed by centrifugation at 1500 rpm at 4° C. for 10 min to obtain sputum cell pellets. The pellets were washed twice with PBS (40 mL). […]
(§2) Where appropriate, 1 μL of a solution containing either the test compound or reference article at the stated concentrations or alternatively 1 μL of DMSO as the vehicle control was added to each well (200 μL in media) and the cells were incubated for 2 hr. […] After washing with 200 uL wash buffer per well, the beads were resuspended in sheath fluid (150 μL) and analyzed immediately. The level of each analyte in the supernatant was calculated using Xcel Fit software with a 4 or 5-parameter equation using each standard curve. The inhibitions of each cytokine production were calculated at each concentration by comparison with vehicle control. The IC50 values were determined from concentration-inhibition curves using XL-Fit (idbs, Guildford, UK)

[10] = tested on: TNFα; assay: LPS-stimulated TNFα production in sputum macrophages from COPD; assay type: cell-based; conditions: Homo sapiens, Macrophage; read-out: TNFα E max, sputum macrophage
Description: (§3) Patients with COPD were inhaled with a nebulised solution of 3% (w/v) hypertonic saline using an ultrasonic nebuliser (Devilbiss, Carthage, Mo.) with tidal breathing for 5 min. This procedure was repeated a maximum of three times until enough sputum was obtained. The sputum samples were homogenized and mixed vigorously using a vortex mixer in 0.02% v/v dithiothreitol (DTT) solution. The samples were re-suspended in PBS (40 mL) followed by centrifugation at 1500 rpm at 4° C. for 10 min to obtain sputum cell pellets. The pellets were washed twice with PBS (40 mL). The sputum cells were then re-suspended in macrophage serum-free medium (macrophage-SFM, Life technologies, Paisley, UK; to achieve 2×10^6/well in a 24 well plate) containing 20 U/mL penicillin, 0.02 mg/mL streptomycin and 5 μg/mL amphotericin B and seeded on high bound 96-well plate, followed by incubation for 2 hr at 37° C. and at 5% CO2 to allow the macrophages to attach to the bottom of the plate. The cells on the plate were washed with fresh macrophage-SFM (200 μL/well) to remove neutrophils and other contaminated cells. The adherent cells (mainly sputum macrophages) on the plate were used for further analysis. Sputum induction and isolation were conducted in Quintiles Drug Research Unit at Guys Hospital and ethics approval and written informed consent was obtained by Quintiles.
as §2

[11] = tested on: MIP1α; assay: LPS-stimulated MIP1α production in sputum macrophages from COPD; assay type: cell-based; conditions: Homo sapiens, Macrophage; read-out: MIP1α E max, sputum macrophage
Description: as §3, §2

[12] = tested on: IL-8; assay: LPS-stimulated IL-8 production in sputum macrophages from COPD; assay type: cell-based; conditions: Homo sapiens, Macrophage; read-out: IL-8 E max, sputum macrophage
Description: as §3, §2

[13] = tested on: IL-8; assay: TNFα-stimulated IL-8 production in primary bronchial epithelial cells from COPD; assay type: cell-based; conditions: Homo sapiens, Epithelial cell; read-out: IL-8 E max, bronchial epithelial cell
Description: (§4) Primary airway epithelial cells obtained from patients with COPD were purchased from Asterand (Royston, UK), and maintained in bronchial epithelial cell growth media that was prepared by mixing together LHC8 (lnvitrogen) (500 mL), with LHC9 (Invitrogen) (500 mL) and 3 μL of retinoic acid solution (5 mg/mL in neat DMSO. The media was removed by aspiration and fresh BEGM (200 μL) was added to each well. Where appropriate, 1 μL of a solution of the test compound at the state concentrations or 1 μL of DMSO as the vehicle control was added and the cells were incubated for 2 hr. The cells were stimulated with TNFα (50 μL; final concentration 50 ng/mL) and then incubated for 4 hr at 37° C. and 5% CO2. The supernatant was then collected and kept at −20° C.
(§5) The levels of IL-6 and IL-8 were determined by ELISA using R&D Systems' Human IL-6 and IL-8 Duoset® Elisa Kits. The inhibition of IL-6 and IL-8 production was calculated at each concentration by comparison with vehicle control.

[14] = tested on: IL-6; assay: TNFα-stimulated IL-6 production in primary bronchial epithelial cells from COPD; assay type: cell-based; conditions: Homo sapiens, Epithelial cell; read-out: IL-6 E max, bronchial epithelial cell
Description: as §4, §5

| IC50 [3] [nM] | IC50 [4] [nM] | EC50 [6] [nM] | SMILES | inhibition at 0.04 µg/mL [1] [%] | inhibition at 0.04 µg/mL [2] [%] | inhibition at 0.04 µg/mL [5] [%] | inhibition at 5 µg/mL [7] [%] | macrophage accumulation into airways, cigarette smoke model [8] | neutrophil accumulation into airways, cigarette smoke model [8] | Emax at 0.1 µg/mL [9] [%] | Emax at 0.1 µg/mL [10] [%] | Emax at 0.1 µg/mL [11] [%] | Emax at 0.1 µg/mL [12] [%] | Emax at 0.1 µg/mL [13] [%] | Emax at 0.1 µg/mL [14] [%] |
| --- | --- | --- | --- | --- | --- | --- | --- | --- | --- | --- | --- | --- | --- | --- | --- |
| 17 | > 1680 | 9.7 | Cc1ccc(-n2nc(C(C)(C)C)cc2NC(=O)Nc2ccc(Oc3ccnc(Nc4ccccc4C)n3)c3ccccc23)cc1 [Example 21, 1-(3-(tert-butyl)-1-(p-tolyl)-1H-pyrazol-5-yl)-3-(4-((2-(o-tolylamino)pyrimidin-4-yl)oxy)naphthalen-1-yl)urea] | 3 | 66 | 100 | – | – | – | – | – | – | – | – | – |
| 30 | > 1590 | 17 | CCOc1ccc(Nc2nccc(Oc3ccc(NC(=O)Nc4cc(C(C)(C)C)nn4-c4ccc(C)cc4)c4ccccc34)n2)cc1 [Example 22, 1-(3-(tert-butyl)-1-(p-tolyl)-1H-pyrazol-5-yl)-3-(4-((2-((4-ethoxyphenyl)amino)pyrimidin-4-yl)oxy)naphthalen-1-yl)urea] | 48 | 78 | 100 | 70.8 | – | – | – | – | – | – | – | – |
| – | – | – | CCC(=O)O[C@]1(C(=O)SCF)[C@H](C)C[C@H]2[C@@H]3C[C@H](F)C4=CC(=O)C=C[C@]4(C)[C@@]3(F)[C@@H](O)C[C@@]21C [Fluticasone Propionate, fluticasone propionate, reference compound] | – | – | – | – | did not inhibit | did not inhibit | 26 | 18 | 20 | 19 | 17 | 38 |
| 24 | 22 | 8 | Cc1ccc(-n2nc(C(C)(C)C)cc2NC(=O)Nc2ccc(Oc3ccnc(Nc4ccc(F)cc4)n3)c3ccccc23)cc1 [Example 23, 1-(3-(tert-butyl)-1-(p-tolyl)-1H-pyrazol-5-yl)-3-(4-((2-((4-fluorophenyl)amino)pyrimidin-4-yl)oxy)naphthalen-1-yl)urea] | 18 | 41 | 100 | – | – | – | – | – | – | – | – | – |
